# In patent US8637558B2 (Industry-Academic Cooperation Foundation, Chosun University, priority 2008, dated 2014):
# Molecular target: 15-PGDH (Homo sapiens (Human), UniProt P15428)
# Assay: Assay for the activities of 15-PGDH inhibitors (formation of NADH at 340 nm)
# Assay type: biochemical
# Conditions: purified 15-PGDH enzyme, 21 μM PGE2, 0.25 mM NAD+, pH 7.5; concentration inhibiting 50% of 15-PGDH activity
# Method: <1-1> Expression and Purification of 15-PGDH
# A 15-PGDH cDNA plasmid containing BamHI and EcoRI sites of the pGES-2T expression vector was used to transform Escherichia coli BL-21 lysS in accordance with the ordinarily used in the art. The transformed cells were grown in 500 mL LB medium containing 50 μg/mL ampicillin at 37° C. while being stirred at 220 rpm until the OD600 reached 0.6. Isopropyl β-D-thiogalactoside (1 mM) was added and the cells were allowed to grow for 12 hours at 25° C. Then, the pellets were harvested by centrifugation at 4000×g for 30 minutes at 4° C. The cell pallets were resuspended in 20 mL cell lysis buffer (1×PBS buffer (pH 7.4) containing 1 mM EDTA and 0.1 mM DTT) and sonicated (14×10 s at 4° C.). The disrupted cells were centrifuged at 4000×g for 20 minutes at 4° C. The supernatant was loaded slowly on a glutathione-sepharose 4B column, which was equilibrated at 4° C. with a cell lysis buffer (1×PBS buffer (pH 7.4) containing 1 mM EDTA and 0.1 mM DTT). The column was washed with the lysis buffer until OD280 reached below 0.005. Then, 15-PGDH was eluted from the glutathione-sepharose 4B column at room temperature for 5 minutes by using the elution buffer (50 mM Tris-HCl (pH 8.0) containing 10 mM reduced glutathione, 1 mM EDTA and 0.1 mM DTT). The concentration and the purity of the purified enzyme were determined by SDS-PAGE.
# <1-2> Assay for the Activities of 15-PGDH Inhibitors
# The absorbance of the reaction mixture was recorded at 340 nm so that the activities of the derivatives according to the present invention as 15-PGDH inhibitors were determined from a standard curve prepared from the absorbance of various concentrations of NADH at 340 nm.
# 15-PGDH, sequence (P15428 whole entry): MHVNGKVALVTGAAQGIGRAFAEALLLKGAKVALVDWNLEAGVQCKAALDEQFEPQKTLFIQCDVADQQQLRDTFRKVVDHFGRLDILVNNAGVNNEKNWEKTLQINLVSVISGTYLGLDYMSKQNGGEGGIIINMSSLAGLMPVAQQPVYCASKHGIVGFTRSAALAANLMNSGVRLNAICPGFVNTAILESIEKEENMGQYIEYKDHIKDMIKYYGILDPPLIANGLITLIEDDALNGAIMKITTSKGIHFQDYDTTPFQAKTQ
row,SMILES,IC50
1,"O=C1NC(=O)/C(=C/c2ccc(OCc3ccc(-c4ccccc4)cc3)cc2)S1 [Derivative 76, 5-(4-(biphenyl-4-ylmethoxy)benzylidene)thiazolidine-2,4-dione]",814 nM
2,"O=C1NC(=O)/C(=C/c2cc(F)c(OCCC3CCCCC3)c(Cl)c2)S1 [Derivative 77, 5-(3-chloro-5-fluoro-4-(2-cyclohexylethoxy)benzylidene)thiazolidine-2,4-dione]",177 nM
3,"COc1cc(/C=C2\SC(=O)NC2=O)cc(Cl)c1OCCC1CCCCC1 [Derivative 78, 5-(3-chloro-4-(2-cyclohexylethoxy)-5-methoxybenzylidene) thiazolidine-2,4-dione]",50.6 nM
4,"O=C1NC(=O)/C(=C/c2ccc([N+](=O)[O-])c(OCCC3CCCCC3)c2)S1 [Derivative 79, 5-(3-(2-cyclohexylethoxy)-4-nitrobenzylidene)thiazolidine-2,4-dione]",2820 nM
5,"COc1ccc(/C=C2\SC(=O)NC2=O)c(Cl)c1OCCC1CCCCC1 [Derivative 80, 5-(2-chloro-3-(2-cyclohexylethoxy)-4-methoxybenzylidene) thiazolidine-2,4-dione]",110 nM
6,"O=C1NC(=O)/C(=C/c2ccc(OCCC3CCCCC3)cc2C(F)(F)F)S1 [Derivative 81, 5-(4-(2-cyclohexylethoxy)-2-(trifluoromethyl)benzylidene)thiazolidine-2,4-dione]",136 nM
7,"O=C1NC(=O)/C(=C/c2cc(OCCC3CCCCC3)ccc2[N+](=O)[O-])S1 [Derivative 83, 5-(5-(2-cyclohexylethoxy)-2-nitrobenzylidene)thiazolidine-2,4-dione]",6280 nM
8,"O=C1NC(=O)/C(=C/c2ccc(OCc3ccccc3)cc2Cl)S1 [Derivative 85, 5-(4-(benzyloxy)-2-chlorobenzylidene)thiazolidine-2,4-dione]",487 nM
9,"O=C1NC(=O)/C(=C/c2ccc(OCCc3ccccc3)cc2Cl)S1 [Derivative 86, 5-(2-chloro-4-phenylethoxybenzylidene)thiazolidine-2,4-dione]",178 nM
10,"O=C1NC(=O)/C(=C/c2ccc(OCCCc3ccccc3)cc2Cl)S1 [Derivative 87, 5-(2-chloro-4-phenylpropoxybenzylidene)thiazolidine-2,4-dione]",52 nM
11,"O=C1NC(=O)/C(=C/c2ccc(OCCN3CCS(=O)(=O)CC3)c([N+](=O)[O-])c2)S1 [Derivative 90, 5-[3-nitro-4-(2-thiomorpholine1,1-Dioxideethoxy)benzylidene]-2,4-thiazolidinedione]",2450 nM
12,"CC1CCC(COc2cccc(/C=C3\SC(=O)NC3=O)c2Cl)CC1 (stereo not drawn) [Derivative 91, 5-{2-chloro-3-[(4-methylcyclohexyl)methoxy]benzylidene}-1,3-thiazolidine-2,4-dione]",135 nM
13,O=C1NC(=O)/C(=C/c2cccc(OCCc3ccccn3)c2Cl)S1 [Derivative 93],10300 nM
14,"CC(C)OCCOc1ccc(/C=C2\SC(=O)NC2=O)cc1Cl [Derivative 94, 5-{3-chloro-4-[2-(propan-2-yloxy)ethoxy]benzylidene}-1,3-thiazolidine-2,4-dione]",2740 nM
15,"O=C1NC(=O)/C(=C/c2ccc(OC3CCCCC3)cc2Cl)S1 [Derivative 95, 5-(2-chloro-4-(cyclohexyloxy)benzylidene)thiazolidine-2,4-dione]",233 nM
16,"O=C1NC(=O)/C(=C/c2ccc(OCC3CCCCC3)cc2Cl)S1 [Derivative 96, 5-(2-chloro-4-(3-cyclohexylmethoxy)benzylidene)thiazolidine-2,4-dione]",2450 nM
17,"O=C1NC(=O)/C(=C/c2ccc(OCCCC3CCCCC3)cc2Cl)S1 [Derivative 97, 5-(2-chloro-4-(3-cyclohexylpropoxy)benzylidene)thiazolidine-2,4-dione]",284 nM
18,"O=C1NC(=O)/C(=C/c2cccc(OC3CCCCC3)c2Cl)S1 [Derivative 99, 5-(2-chloro-3-(cyclohexyloxy)benzylidene)thiazolidine-2,4-dione]",212 nM
19,"O=C1NC(=O)/C(=C/c2cccc(OCCCCC3CCCCC3)c2Cl)S1 [Derivative 100, 5-(2-chloro-3-(cyclohexylbutoxy)benzylidene)thiazolidine-2,4-dione]",94.5 nM
20,"O=C1NC(=O)/C(=C/c2ccc(OCCc3cccs3)c(Cl)c2)S1 [Derivative 101, 5-(3-chloro-4-(2-(thiophen-2-yl)ethoxy)benzylidene)thiazolidine-2,4-dione]",84.1 nM
21,"COc1cc(/C=C2\SC(=O)NC2=O)ccc1OCCc1cccs1 [Derivative 102, 5-(3-methoxy-4-(2-(thiophen-2-yl)ethoxy)benzylidene)thiazolidine-2,4-dione]",682 nM

row,SMILES,IC50
1,"COc1ccc(/C=C2\SC(=O)NC2=O)cc1OCCc1cccs1 [Derivative 103, 5-(4-methoxy-3-(2-(thiophen-2-yl)ethoxy)benzylidene)thiazolidine-2,4-dione]",1670 nM
2,O=C1NC(=O)/C(=C/c2ccc(OCCc3ccccn3)cc2Cl)S1 [Derivative 104],8910 nM
3,"O=C1NC(=O)/C(=C/c2cccc(OCCC3CCCC3)c2Cl)S1 [Derivative 107, 5-[2-chloro-3-(2-cyclopentylethoxy)benzylidene]-1,3-thiazolidine-2,4-dione]",154 nM
4,"O=C1NC(=O)/C(=C/c2ccc(OCCC3CCCC3)c(Cl)c2)S1 [Derivative 108, 5-[3-chloro-4-(2-cyclopentylethoxy)benzylidene]-1,3-thiazolidine-2,4-dione]",99.3 nM
5,"O=C1NC(=O)/C(=C/c2cccc(OCc3ccc([N+](=O)[O-])cc3)c2Cl)S1 [Derivative 109, 5-(2-chloro-3-(4-nitrobenzyloxy)benzylidene)thiazolidine-2,4-dione]",11700 nM
6,"O=C1NC(=O)/C(=C/c2cccc(OCCOC3CCCCC3)c2Cl)S1 [Derivative 110, 5-{2-chloro-3-[2-(cyclohexyloxy)ethoxy]benzylidene}-1,3-thiazolidine-2,4-dione]",233 nM
7,"O=C1NC(=O)/C(=C/c2ccc(OCC3CCC(C(=O)O)CC3)cc2)S1 (stereo not drawn) [Derivative 111, 4-({4-[(Z)-(2,4-dioxo-1,3-thiazolidin-5-ylidene)methyl]phenoxy}methyl)cyclohexane carboxylic acid]",9330 nM
8,"O=C1NC(=O)C(Cc2ccc(OCCC3CCCCC3)cc2)S1 (stereo not drawn) [Derivative 113, 5-(4-(2-cyclohexylethoxy)benzyl)thiazolidine-2,4-dione]",977 nM
9,"O=C1NC(=O)C(Cc2ccc(OCC3CCCCC3)cc2)S1 (stereo not drawn) [Derivative 114, 5-(4-(cyclohexylmethoxy)benzyl)thiazolidine-2,4-dione]",4060 nM
10,"O=C1NC(=O)C(Cc2ccc(OCC3CCCC3)cc2)S1 (stereo not drawn) [Derivative 115, 5-(4-(cyclopentylmethoxy)benzyl)thiazolidine-2,4-dione]",854 nM
11,"O=C1NC(=O)C(Cc2ccc(OCc3ccccc3)cc2)S1 (stereo not drawn) [Derivative 116, 5-(4-(benzyloxy)benzyl)thiazolidine-2,4-dione]",5250 nM
12,"O=C1NC(=O)C(Cc2ccc(OCCC3CCCC3)cc2)S1 (stereo not drawn) [Derivative 118, 5-(4-(2-cyclopentylethoxy)benzyl)thiazolidine-2,4-dione]",2210 nM
13,"O=C1NC(=O)C(Cc2ccc(OCCN3CCS(=O)(=O)CC3)cc2)S1 (stereo not drawn) [Derivative 119, 5-(4-(2-thiomorpholine-1,1-dioxideethoxy)benzyl)-2,4-thiazolidinedione]",5210 nM
14,"O=C1NC(=O)C(Cc2ccc(OCCC3CCCCC3)c(Cl)c2)S1 (stereo not drawn) [Derivative 120, 5-(3-chloro-4-(2-cyclohexylethoxy)benzyl)thiazolidine-2,4-dione]",173 nM
15,"Cc1cc(CC2SC(=O)NC2=O)ccc1OCCC1CCCCC1 (stereo not drawn) [Derivative 121, 5-(4-(2-cyclohexylethoxy)-3-methylbenzyl)thiazolidine-2,4-dione]",397 nM
16,"O=C1NC(=O)C(Cc2ccc(OCCCC3CCCCC3)c(Cl)c2)S1 (stereo not drawn) [Derivative 122, 5-(3-chloro-4-(cyclohexylpropoxy)benzyl)thiazolidine-2,4-dione]",143 nM
17,"O=C1NC(=O)C(Cc2ccc(OCC3CCCC3)cc2)S1 (stereo not drawn) [Derivative 123, 5-(4-(cyclopentylmethoxy)benzyl)thiazolidine-2,4-dione]",205 nM
18,"O=C1NC(=O)C(Cc2ccc(OCc3ccccc3)cc2)S1 (stereo not drawn) [Derivative 124, 5-(4-(benzyloxy)benzyl)thiazolidine-2,4-dione]",1260 nM
19,"O=C1NC(=O)C(Cc2ccc(OCCN3CCS(=O)(=O)CC3)cc2)S1 (stereo not drawn) [Derivative 126, 5-(4-(2-thiomorpholine-1,1-Dioxideethoxy)benzyl)-2,4-thiazolidinedione]",1390 nM
20,"O=C1NC(=O)C(Cc2ccc(OCCC3CCCCC3)cc2Cl)S1 (stereo not drawn) [Derivative 127, 5-(2-chloro-4-(2-cyclohexylethoxy)benzyl)thiazolidine-2,4-dione]",158 nM
21,"O=C1NC(=O)C(Cc2ccc(OCc3ccc(-c4ccccc4)cc3)cc2)S1 (stereo not drawn) [Derivative 129, 5-(4-(biphenyl-4-ylmethoxy)benzyl)thiazolidine-2,4-dione]",1080 nM
